PubChem BioAssay AID256 (DTP/NCI, 2004)
“And” between values parts separate entries of the source, which are not always exact repeats. Identical values can stand only once. Inconclusive results and toxic doses are left out.

Tested on: CD2F1 mice, L1210 leukemia ip, survival T/C
Experiment: NCI In Vivo Anticancer Drug Screen. Data for tumor model L1210 Leukemia (intraperitoneal) in CD2F1 (CDF1) mice
Conditions: higher = longer survival
Procedure, shortened: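 In this screen, transplantable tumors were grown in mice given either the compound or its vehicle. Results were expressed as the treated measurement relative to the control measurement.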

[1] = endpoint: mean survival time, dose: 100.0 mg/kg/injection, schedule: Q01DX009 (ip), vehicle: saline with Tween-80
[2] = endpoint: mean survival time, dose: 200.0 mg/kg/injection, schedule: Q01DX009 (ip), vehicle: saline with Tween-80
[3] = endpoint: mean survival time, dose: 400.0 mg/kg/injection, schedule: Q01DX009 (ip), vehicle: saline with Tween-80
[4] = endpoint: mean survival time, dose: 12.5 mg/kg/injection, schedule: Q01DX009 (ip), vehicle: saline with Tween-80
[5] = endpoint: mean survival time, dose: 25.0 mg/kg/injection, schedule: Q01DX009 (ip), vehicle: saline with Tween-80
[6] = endpoint: mean survival time, dose: 50.0 mg/kg/injection, schedule: Q01DX009 (ip), vehicle: saline with Tween-80
[7] = endpoint: mean survival time, dose: 100.0 mg/kg/injection, schedule: Q01DX001 (ip), vehicle: saline with Tween-80
[8] = endpoint: mean survival time, dose: 200.0 mg/kg/injection, schedule: Q01DX001 (ip), vehicle: saline with Tween-80
[9] = endpoint: mean survival time, dose: 100.0 mg/kg/injection, schedule: Q04DX003 (ip), vehicle: saline with Tween-80
[10] = endpoint: mean survival time, dose: 200.0 mg/kg/injection, schedule: Q04DX003 (ip), vehicle: saline with Tween-80
[11] = endpoint: mean survival time, dose: 400.0 mg/kg/injection, schedule: Q04DX003 (ip), vehicle: saline with Tween-80
[12] = endpoint: mean survival time, dose: 100.0 mg/kg/injection, schedule: Q04DX003 (ip), vehicle: saline
[13] = endpoint: mean survival time, dose: 200.0 mg/kg/injection, schedule: Q04DX003 (ip), vehicle: saline
[14] = endpoint: mean survival time, dose: 400.0 mg/kg/injection, schedule: Q04DX003 (ip), vehicle: saline

NC(=O)c1cc([N+](=O)[O-])ccc1NN=NCCCl
T/C (endpoint: mean survival time, dose: 25.0 mg/kg/injection, schedule: Q01DX001 (ip), vehicle: Klucel (hydroxypropylcellulose) (HPC)): 112 % of control | T/C (endpoint: mean survival time, dose: 50.0 mg/kg/injection, schedule: Q01DX001 (ip), vehicle: Klucel (hydroxypropylcellulose) (HPC)): 150 % of control | T/C (endpoint: mean survival time, dose: 100.0 mg/kg/injection, schedule: Q01DX001 (ip), vehicle: Klucel (hydroxypropylcellulose) (HPC)): 183 % of control | T/C (endpoint: mean survival time, dose: 200.0 mg/kg/injection, schedule: Q01DX001 (ip), vehicle: Klucel (hydroxypropylcellulose) (HPC)): 231 % of control

Cc1cc(Br)cc(Br)c1OCC(=O)O
T/C (endpoint: mean survival time, dose: 50.0 mg/kg/injection, schedule: Q01DX009 (ip), vehicle: Klucel (hydroxypropylcellulose) (HPC)): 96 % of control | T/C (endpoint: mean survival time, dose: 100.0 mg/kg/injection, schedule: Q01DX009 (ip), vehicle: Klucel (hydroxypropylcellulose) (HPC)): 93 % of control | T/C (endpoint: mean survival time, dose: 200.0 mg/kg/injection, schedule: Q01DX009 (ip), vehicle: Klucel (hydroxypropylcellulose) (HPC)): 96 % of control

O=NNc1cnccn1
T/C (endpoint: median survival time, dose: 3.12 mg/kg/injection, schedule: Q01DX009 (ip), vehicle: water): 112 % of control | T/C (endpoint: median survival time, dose: 6.25 mg/kg/injection, schedule: Q01DX009 (ip), vehicle: water): 113 % of control and 109 % of control | T/C (endpoint: median survival time, dose: 8.6 mg/kg/injection, schedule: Q01DX009 (ip), vehicle: water): 121 % of control and 107 % of control | T/C (endpoint: median survival time, dose: 11.0 mg/kg/injection, schedule: Q01DX009 (ip), vehicle: water): 121 % of control and 124 % of control | T/C (endpoint: median survival time, dose: 12.5 mg/kg/injection, schedule: Q01DX009 (ip), vehicle: water): 120 % of control and 123 % of control | T/C (endpoint: median survival time, dose: 14.4 mg/kg/injection, schedule: Q01DX009 (ip), vehicle: water): 116 % of control and 112 % of control | T/C (endpoint: median survival time, dose: 24.0 mg/kg/injection, schedule: Q01DX009 (ip), vehicle: water): 124 % of control | T/C (endpoint: median survival time, dose: 38.0 mg/kg/injection, schedule: Q01DX009 (ip), vehicle: water): 221 % of control and 223 % of control | T/C (endpoint: median survival time, dose: 40.0 mg/kg/injection, schedule: Q01DX009 (ip), vehicle: water): 183 % of control | T/C (endpoint: median survival time, dose: 50.0 mg/kg/injection, schedule: Q01DX009 (ip), vehicle: water): 121 % of control | T/C (endpoint: median survival time, dose: 100.0 mg/kg/injection, schedule: Q01DX009 (ip), vehicle: water): 92 % of control

O=C(NCCCC1C2CCC(C2)C1CNC(=O)Nc1cccc(Cl)c1)Nc1cccc(Cl)c1 (configuration not stated)
T/C [1]: 93 % of control | T/C [2]: 93 % of control | T/C [3]: 89 % of control

COc1cc(C2c3cc4c(cc3C(O)C(CO)C2CO)OCO4)cc(OC)c1OC (configuration not stated)
T/C [4]: 97 % of control | T/C [5]: 97 % of control | T/C [6]: 102 % of control | T/C [1]: 106 % of control | T/C (endpoint: mean survival time, dose: 100.0 mg/kg/injection, schedule: Q04DX003 (ip), vehicle: saline sonified): 107 % of control | T/C (endpoint: mean survival time, dose: 150.0 mg/kg/injection, schedule: Q04DX003 (ip), vehicle: saline sonified): 114 % of control | T/C (endpoint: mean survival time, dose: 225.0 mg/kg/injection, schedule: Q04DX003 (ip), vehicle: saline sonified): 108 % of control | T/C [3]: 122 % of control

Nc1cc(Cl)c(N)c(N)n1
T/C [1]: 100 % of control | T/C [2]: 91 % of control

O=C1N(O)C2(CCCCC2)/C(=N/O)C12CCCCC2
T/C (endpoint: mean survival time, dose: 75.0 mg/kg/injection, schedule: Q01DX001 (ip), vehicle: saline): 100 % of control | T/C (endpoint: mean survival time, dose: 150.0 mg/kg/injection, schedule: Q01DX001 (ip), vehicle: saline): 94 % of control | T/C (endpoint: mean survival time, dose: 300.0 mg/kg/injection, schedule: Q01DX001 (ip), vehicle: saline): 94 % of control

COC(=O)c1cc2cc3c(c(O)c2c(=O)o1)OC1(Cc2c(O)c4c(c(O)c2O1)C(=O)C(OC)CC4=O)CC3O (configuration not stated)
T/C [4]: 92 % of control | T/C [5]: 94 % of control | T/C [7]: 91 % of control | T/C [1]: 101 % of control | T/C [8]: 96 % of control

C[N+](C)(C)CCOC(=O)Nc1ccc(C(c2ccc(NC(=O)OCC[N+](C)(C)C)cc2)c2ccc(NC(=O)OCC[N+](C)(C)C)cc2)cc1
T/C (endpoint: mean survival time, dose: 0.25 mg/kg/injection, schedule: Q04DX003 (ip), vehicle: saline with Tween-80): 97 % of control | T/C (endpoint: mean survival time, dose: 0.5 mg/kg/injection, schedule: Q04DX003 (ip), vehicle: saline with Tween-80): 96 % of control | T/C (endpoint: mean survival time, dose: 1.0 mg/kg/injection, schedule: Q04DX003 (ip), vehicle: saline with Tween-80): 94 % of control

C[N+](C)(C)CC1CCCC1
T/C (endpoint: mean survival time, dose: 5.0 mg/kg/injection, schedule: Q01DX001 (ip), vehicle: saline): 97 % of control | T/C (endpoint: mean survival time, dose: 10.0 mg/kg/injection, schedule: Q01DX001 (ip), vehicle: saline): 102 % of control | T/C (endpoint: mean survival time, dose: 20.0 mg/kg/injection, schedule: Q01DX001 (ip), vehicle: saline): 103 % of control | T/C (endpoint: mean survival time, dose: 40.0 mg/kg/injection, schedule: Q01DX001 (ip), vehicle: saline): 103 % of control

COC(=O)CC(O)(CCCC(C)(C)O)C(=O)OC1C(OC)=CC23CCCN2CCc2cc4c(cc2C13)OCO4 (configuration not stated) (tested in a mixture with another compound)
T/C (endpoint: mean survival time, dose: 0.25 mg/kg/injection, schedule: Q01DX009 (ip), vehicle: saline with Tween-80): 112 % of control | T/C (endpoint: mean survival time, dose: 0.5 mg/kg/injection, schedule: Q01DX009 (ip), vehicle: saline with Tween-80): 115 % of control | T/C (endpoint: mean survival time, dose: 1.0 mg/kg/injection, schedule: Q01DX009 (ip), vehicle: saline with Tween-80): 115 % of control | T/C (endpoint: mean survival time, dose: 2.0 mg/kg/injection, schedule: Q01DX009 (ip), vehicle: saline with Tween-80): 124 % of control

COC(=O)C(Cc1cnc[nH]1)NC(=O)c1ccccc1 (configuration not stated)
T/C [9]: 103 % of control | T/C [10]: 104 % of control | T/C [11]: 97 % of control

O=C1OC(=O)C2C3C=CC(C4C=CC43)C12 (configuration not stated)
T/C [6]: 102 % of control | T/C [7]: 101 % of control | T/C [1]: 102 % of control | T/C [8]: 98 % of control | T/C [2]: 97 % of control

Cc1cc2cc3n(c2nn1)N=C(Cl)CC3
T/C (endpoint: mean survival time, dose: 61.87 mg/kg/injection, schedule: Q04DX002 (ip), vehicle: Klucel (hydroxypropylcellulose) (HPC)): 103 % of control | T/C (endpoint: mean survival time, dose: 100.0 mg/kg/injection, schedule: Q04DX002 (ip), vehicle: Klucel (hydroxypropylcellulose) (HPC)): 101 % of control | T/C (endpoint: mean survival time, dose: 123.75 mg/kg/injection, schedule: Q04DX002 (ip), vehicle: Klucel (hydroxypropylcellulose) (HPC)): 105 % of control | T/C (endpoint: mean survival time, dose: 200.0 mg/kg/injection, schedule: Q04DX002 (ip), vehicle: Klucel (hydroxypropylcellulose) (HPC)): 103 % of control | T/C (endpoint: mean survival time, dose: 247.5 mg/kg/injection, schedule: Q04DX002 (ip), vehicle: Klucel (hydroxypropylcellulose) (HPC)): 109 % of control

c1ccc2c(c1)nnn2-c1ccncc1
T/C [9]: 91 % of control | T/C [10]: 104 % of control

Cc1ccc[n+](CC(O)c2ccc(C(O)C[n+]3cccc(C)c3)cc2)c1 (configuration not stated)
T/C (endpoint: mean survival time, dose: 0.08 mg/kg/injection, schedule: Q04DX003 (ip), vehicle: saline): 101 % of control | T/C (endpoint: mean survival time, dose: 0.15 mg/kg/injection, schedule: Q04DX003 (ip), vehicle: saline): 101 % of control

CCOC(CNC(=O)NC1CCCCC1)OCC
T/C [1]: 113 % of control | T/C [9]: 103 % of control | T/C [2]: 104 % of control | T/C [10]: 104 % of control | T/C [3]: 108 % of control | T/C [11]: 93 % of control

O=C(CBr)c1ccccc1
T/C (endpoint: mean survival time, dose: 5.0 mg/kg/injection, schedule: Q01DX009 (ip), vehicle: saline with Tween-80): 97 % of control | T/C (endpoint: mean survival time, dose: 10.0 mg/kg/injection, schedule: Q01DX009 (ip), vehicle: saline with Tween-80): 93 % of control

Cc1ccc(S(=O)(=O)NN=C2CC3CCC(C2)S3)cc1
T/C (endpoint: mean survival time, dose: 37.5 mg/kg/injection, schedule: Q01DX001 (ip), vehicle: saline with Tween-80): 101 % of control | T/C (endpoint: mean survival time, dose: 75.0 mg/kg/injection, schedule: Q01DX001 (ip), vehicle: saline with Tween-80): 104 % of control | T/C (endpoint: mean survival time, dose: 150.0 mg/kg/injection, schedule: Q01DX001 (ip), vehicle: saline with Tween-80): 106 % of control

CCC(O)(CC)c1ccc2ncccc2c1
T/C (endpoint: mean survival time, dose: 75.0 mg/kg/injection, schedule: Q04DX003 (ip), vehicle: saline): 98 % of control | T/C (endpoint: mean survival time, dose: 150.0 mg/kg/injection, schedule: Q04DX003 (ip), vehicle: saline): 97 % of control | T/C (endpoint: mean survival time, dose: 300.0 mg/kg/injection, schedule: Q04DX003 (ip), vehicle: saline): 98 % of control

O=C(C=C(C(F)(F)F)C(F)(F)F)c1cccc(S(=O)(=O)F)c1
T/C [7]: 107 % of control

C=CCNC(=O)/C=C/C(=O)O
T/C [12]: 97 % of control | T/C [13]: 97 % of control | T/C [14]: 103 % of control

COc1cc([N+](=O)[O-])ccc1NC(=O)Oc1ccccc1F
T/C [1]: 109 % of control | T/C [2]: 109 % of control | T/C [3]: 108 % of control

CC(C)(O)C#CC(C)(C)O
T/C [12]: 101 % of control | T/C [13]: 101 % of control | T/C [14]: 97 % of control

[NH2-].[NH2-].[NH2-].[NH2-].[NH2-].[NH2-].[Ru+6]
T/C (endpoint: mean survival time, dose: 12.5 mg/kg/injection, schedule: Q04DX002 (ip), vehicle: saline): 86 % of control
